Source: patent US20120129212A1, “METHOD OF MONITORING ERYTHROPOIESIS” (VERTEX PHARMACEUTICALS INCORPORATED, priority 2009, published 2012)

Test system: erythropoiesis (nascent erythrocytes)
Assay: Cobalt chloride-induced erythropoiesis in eGFP mice (FACS of erythrocyte eGFP fluorescence)
Type: in vivo, hemizygous BALB/c mice
Conditions: for effect on erythropoiesis (right-shift of eGFP fluorescence curves): subcutaneous injection, six mice
Experimental: Mice were anesthetized with isofluorane and a minute incision was made into the lateral tail vein. Approximately 1 μl of tail vein blood was diluted into 0.5 ml of sterile saline containing 3 mM EDTA and stored at 4° C. Fluorescence activated cell sorting (FACS) was performed within 6 hours of blood collection on a FACSAria (BD Biosciences, San Jose, Calif.) flow cytometer. A 488 nm laser was used to excite the eGFP and a 530/30 nm band-pass filter and a 502 nm long-pass filter were used to monitor emissions. Forward and side scatter were used to gate for single erythrocytes, with approximately one hundred thousand events measured per blood sample. Median Fluorescence Intensity (MFI) for each erythrocyte population was analyzed using FlowJo 7.2.5 software (Tree Star, Inc. Ashland, Oreg.).
Tail vein blood (1 μl) was collected daily from one-year old hemizygous BALB/c mice starting on the day before cobalt chloride treatment (Day −1) and continuing through three days after treatment (Day 3) as described in Example 1, On Day 0, six one-year old BALB/c (hemizygous) mice were subcutaneously injected with 0.1 mL saline containing 4 μmols of cobalt chloride. FACS was performed immediately following the blood draw, and data were analyzed with FlowJo software as described in Example 1.

SMILES: [Cl][Co][Cl] [cobalt chloride]
- increase in the number of nascent erythrocytes (4 μmols cobalt chloride s.c. on Day 0, Day 2 vs Day −1, statistically significant): 10 fold
- effect on erythropoiesis (right-shift of eGFP fluorescence curves): stimulates erythropoiesis in vivo
- effect on erythropoiesis (right-shift of eGFP fluorescence curves) (listed as Cobalt chloride): stimulated erythropoiesis in each of the six mice tested
